# According to PubChem BioAssay AID2060605 (Molecular Pharmacology Branch, DTP, NCI, 2025):
# “And” between values parts separate entries of the source, which are not always exact repeats. Equal entries are not always repeated.
# Test system: 947758-054-R-J2-PDC spheroid growth, percent test/control
# Experiment: Anticancer human tumor 947758-054-R-J2-PDC patient-derived colon adenocarcinoma cell line growth inhibition [CLK]
# Settings: spheroids with HUVEC and MSC; for viability, T/C: stronger effect = lower value
# Method in brief: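 Patient-derived tumor cells grown as complex spheroids with HUVEC endothelial cells and mesenchymal stem cells, treated with drug combinations. Concentrations descend in half-log steps from near clinical Cmax, or from 10 microM if Cmax unknown.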
# [1] = curve of first compound, second compound 0.0316 µM
# [2] = curve of first compound, second compound 0.1 µM
# [3] = curve of first compound, second compound 0.316 µM
# [4] = curve of first compound, second compound 1 µM
# [5] = curve of first compound, second compound 3.16 µM
# [6] = curve of first compound, second compound 10 µM
# [7] = second compound 0.0316 µM, first compound 0.0316 µM
# [8] = second compound 0.0316 µM, first compound 0.1 µM
# [9] = second compound 0.0316 µM, first compound 0.316 µM
# [10] = second compound 0.0316 µM, first compound 1 µM
# [11] = second compound 0.1 µM, first compound 0.0316 µM
# [12] = second compound 0.1 µM, first compound 0.1 µM
# [13] = second compound 0.1 µM, first compound 0.316 µM
# [14] = second compound 0.1 µM, first compound 1 µM
# [15] = second compound 0.316 µM, first compound 0.0316 µM
# [16] = second compound 0.316 µM, first compound 0.1 µM
# [17] = second compound 0.316 µM, first compound 0.316 µM
# [18] = second compound 0.316 µM, first compound 1 µM
# [19] = second compound 1 µM, first compound 0.0316 µM
# [20] = second compound 1 µM, first compound 0.1 µM
# [21] = second compound 1 µM, first compound 0.316 µM
# [22] = second compound 1 µM, first compound 1 µM
# [23] = second compound 3.16 µM, first compound 0.0316 µM
# [24] = second compound 3.16 µM, first compound 0.1 µM
# [25] = second compound 3.16 µM, first compound 0.316 µM
# [26] = second compound 3.16 µM, first compound 1 µM
# [27] = second compound 10 µM, first compound 0.0316 µM
# [28] = second compound 10 µM, first compound 0.1 µM
# [29] = second compound 10 µM, first compound 0.316 µM
# [30] = second compound 10 µM, first compound 1 µM
# 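Also: spheroids exposed to compounds for one week before readout.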
# 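For viability, T/C in this document: 100% = DMSO vehicle control wells.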
compound,measurement,setting,value
CC(=O)O[C@H]1C(=O)[C@@]2(C)[C@H]([C@H](OC(=O)c3ccccc3)[C@]3(O)C[C@H](OC(=O)[C@H](O)[C@@H](NC(=O)c4ccccc4)c4ccccc4)C(C)=C1C3(C)C)[C@]1(OC(C)=O)CO[C@@H]1C[C@@H]2O + CNC(=O)c1ccc(Nc2nc(OC3CCCC3)c3c(-c4ccc5nc(C)oc5c4)c[nH]c3n2)c(OC)c1,IC50,[1],< 31.6 nM
same,IC50,[2],> 10000 nM
same,IC50,[3],< 31.6 nM
same,IC50,[4],> 10000 nM
same,IC50,[5],< 31.6 nM
same,IC50,[6],< 31.6 nM
same,"viability, T/C",[7],27.7%
same,"viability, T/C",[8],34.4%
same,"viability, T/C",[9],31.7%
same,"viability, T/C",[10],35.2%
same,"viability, T/C","second compound 0.0316 µM, first compound 3.16 µM",40.6%
same,"viability, T/C","second compound 0.0316 µM, first compound 10 µM",47.7%
same,"viability, T/C",[11],61.2%
same,"viability, T/C",[12],59%
same,"viability, T/C",[13],65%
same,"viability, T/C",[14],79.8%
same,"viability, T/C","second compound 0.1 µM, first compound 3.16 µM",79.1%
same,"viability, T/C","second compound 0.1 µM, first compound 10 µM",90.5%
same,"viability, T/C",[15],47.7%
same,"viability, T/C",[16],65.1%
same,"viability, T/C",[17],74.4%
same,"viability, T/C",[18],85.6%
same,"viability, T/C","second compound 0.316 µM, first compound 3.16 µM",88.3%
same,"viability, T/C","second compound 0.316 µM, first compound 10 µM",87.4%
same,"viability, T/C",[19],41.1%
same,"viability, T/C",[20],83.5%
same,"viability, T/C",[21],59.1%
same,"viability, T/C",[22],61.9%
same,"viability, T/C","second compound 1 µM, first compound 3.16 µM",82.8%
same,"viability, T/C","second compound 1 µM, first compound 10 µM",57.6%
same,"viability, T/C",[23],36.9%
same,"viability, T/C",[24],43.8%
same,"viability, T/C",[25],70.2%
same,"viability, T/C",[26],70.8%
same,"viability, T/C","second compound 3.16 µM, first compound 3.16 µM",67.9%
same,"viability, T/C","second compound 3.16 µM, first compound 10 µM",56.8%
same,"viability, T/C",[27],35.2%
same,"viability, T/C",[28],42.1%
same,"viability, T/C",[29],56.7%
same,"viability, T/C",[30],53.9%
same,"viability, T/C","second compound 10 µM, first compound 3.16 µM",56.8%
same,"viability, T/C","second compound 10 µM, first compound 10 µM",61.3%
C=C(F)C(=O)N1CCN(c2nc(OCC3CCCN3C)nc3c2CCN(c2cccc4cccc(Cl)c24)C3)CC1CC#N (stereo unspecified),"viability, T/C",compound 0.0316 µM,97% and 92.3%
same,"viability, T/C",compound 0.1 µM,89.9% and 87.2%
same,"viability, T/C",compound 0.316 µM,87% and 84%
same,"viability, T/C",compound 1 µM,95.5% and 86.5%
same,"viability, T/C",compound 3.16 µM,144% and 135%
same,"viability, T/C",compound 10 µM,20% and 21.4%
same,IC50,curve of compound,6600 nM and 6470 nM
CCc1c2c(nc3ccc(O)cc13)-c1cc3c(c(=O)n1C2)COC(=O)[C@]3(O)CC + CNC(=O)c1ccc(Nc2nc(OC3CCCC3)c3c(-c4ccc5nc(C)oc5c4)c[nH]c3n2)c(OC)c1,IC50,[1],< 3.16 nM
same,IC50,[2],4.57 nM
same,IC50,[3],< 3.16 nM
same,IC50,[4],< 3.16 nM
same,IC50,[5],< 3.16 nM
same,IC50,[6],< 3.16 nM
same,"viability, T/C","second compound 0.0316 µM, first compound 0.00316 µM",45.2%
same,"viability, T/C","second compound 0.0316 µM, first compound 0.01 µM",30.2%
same,"viability, T/C",[7],23.5%
same,"viability, T/C",[8],17.9%
same,"viability, T/C",[9],8.37%
same,"viability, T/C",[10],1.73%
same,"viability, T/C","second compound 0.1 µM, first compound 0.00316 µM",59.9%
same,"viability, T/C","second compound 0.1 µM, first compound 0.01 µM",28.5%
same,"viability, T/C",[11],18.2%
same,"viability, T/C",[12],16.5%
same,"viability, T/C",[13],8.07%
same,"viability, T/C",[14],3%
same,"viability, T/C","second compound 0.316 µM, first compound 0.00316 µM",34.3%
same,"viability, T/C","second compound 0.316 µM, first compound 0.01 µM",29.1%
same,"viability, T/C",[15],16.8%
same,"viability, T/C",[16],13.8%
same,"viability, T/C",[17],6.27%
same,"viability, T/C",[18],1.02%
same,"viability, T/C","second compound 1 µM, first compound 0.00316 µM",34%
same,"viability, T/C","second compound 1 µM, first compound 0.01 µM",20.6%
same,"viability, T/C",[19],10.7%
same,"viability, T/C",[20],8.46%
same,"viability, T/C",[21],2.97%
same,"viability, T/C",[22],0.31%
same,"viability, T/C","second compound 3.16 µM, first compound 0.00316 µM",31.6%
same,"viability, T/C","second compound 3.16 µM, first compound 0.01 µM",16.2%
same,"viability, T/C",[23],12.2%
same,"viability, T/C",[24],6.75%
same,"viability, T/C",[25],4.2%
same,"viability, T/C",[26],0.54%
same,"viability, T/C","second compound 10 µM, first compound 0.00316 µM",29.3%
same,"viability, T/C","second compound 10 µM, first compound 0.01 µM",19.5%
same,"viability, T/C",[27],11.5%
same,"viability, T/C",[28],5.96%
same,"viability, T/C",[29],2.11%
same,"viability, T/C",[30],0.68%
